Our source for the Log K values is ChEMBL document CHEMBL1131346, “A free energy calculation can be used to predict K(+)-binding constants for new macrotetrolide antibiotics” (Bioorg Med Chem Lett, 1998).

The assay can be described thus: Compound was evaluated for K+ ion binding affinity to macrocycle of macrotetrolides.

In turn, `CC[C@H]1C[C@@H]2CC[C@@H](O2)[C@@H](C)C(=O)O[C@H](C)C[C@H]2CC[C@H](O2)[C@H](C)C(=O)O[C@@H](C)C[C@@H]2CC[C@@H](O2)[C@@H](C)C(=O)O[C@H](C)C[C@H]2CC[C@H](O2)[C@H](C)C(=O)O1` yielded a Log K of 4.4.

On to `C[C@@H]1C[C@H]2CC[C@H](O2)[C@H](C)C(=O)O[C@@H](C)C[C@@H]2CC[C@@H](O2)[C@@H](C)C(=O)O[C@H](C)C[C@H]2CC[C@@H](O2)[C@H](C)C(=O)O[C@@H](C)C[C@@H]2CC[C@@H](O2)[C@@H](C)C(=O)O1`, for which the Log K is 3.88.

In turn, `CC[C@H]1C[C@@H]2CC[C@@H](O2)[C@@H](C)C(=O)O[C@H](C)C[C@H]2CC[C@H](O2)[C@H](C)C(=O)O[C@@H](CC)C[C@@H]2CC[C@@H](O2)[C@@H](C)C(=O)O[C@H](C)C[C@H]2CC[C@H](O2)[C@H](C)C(=O)O1` registered a Log K of 4.73.
